Assay results: US20210294217A1, “ACTINIC RAY-SENSITIVE OR RADIATION-SENSITIVE RESIN COMPOSITION, RESIST FILM, PATTERN FORMING METHOD, AND METHOD FOR MANUFACTURING ELECTRONIC DEVICE” (FUJIFILM Corporation, priority 2019, published 2021)

Assay: acid dissociation constant pKa determined by computation (ACD/Labs Software Package 1; Gaussian 16 DFT where not calculable)
Conditions: acid generated from photoacid generator B
Text: In the present specification, an acid dissociation constant (pKa) represents a pKa in an aqueous solution, and is specifically a value determined by computation from a value based on a Hammett's substituent constant and database of publicly known literature values, using the following software package 1. Any of the pKa values described in the present specification indicates values determined by computation using the software package.
Software Package 1: Advanced Chemistry Development (ACD/Labs) Software V 8.14 for Solaris (1994-2007 ACD/Labs).
As described above, the pKa in the present specification refers to a value determined by computation from a value based on a Hammett's substituent constant and database of publicly known literature values, using the software package 1, but in a case where the pKa cannot be calculated by the method, a value obtained by Gaussian 16 based on density functional theory (DFT) shall be adopted.
In addition, the pKa in the present specification refers to a “pKa in an aqueous solution” as described above, but in a case where the pKa in an aqueous solution cannot be calculated, a “pKa in a dimethyl sulfoxide (DMSO) solution” shall be adopted.
Furthermore, in the measurement of the acid dissociation constant pKa of an acid generated from the photoacid generator B, specifically, the pKa is a value determined by subjecting a compound formed by substituting each cationic moiety in the compounds B-1 to B-25 with H^+ (for example, in a case of the compound B-1, a compound formed by substituting the triphenylsulfonium cation with H^+) to computation from a value based on a Hammett's substituent constant and database of publicly known literature values, using Software Package 1 of ACD/Labs, as described above. In addition, in a case where pKa could not be calculated by the method, a value obtained by Gaussian 16 based on density functional theory (DFT) was adopted.
In the following table, “pKa1” represents an acid dissociation constant of the first stage, “pKa2” represents an acid dissociation constant of the second stage, and “pKa3” represents an acid dissociation constant of the third stage. A smaller value of pKa means a higher acidity. […]

For `O=C(NS(=O)(=O)C(F)(F)C(F)(F)C(F)(F)S(=O)(=O)NS(=O)(=O)C(F)(F)F)c1cc(C(F)(F)F)cc(C(F)(F)F)c1` [B-24], which “Difference between acid dissociation constant a1 and acid dissociation constant a2” value is on record?
Its value is 9.95.

Which “Difference between acid dissociation constant a1 and acid dissociation constant a2” value does the source give for `O=C(O)C(F)(F)C(F)(F)C(F)(F)C(=O)OC12CC3CC(CC(COC(=O)C(F)(F)S(=O)(=O)O)(C3)C1)C2` [B-3] here?
The value was 2.92.

With `O=C(O)CCCOC(=O)C(CS(=O)(=O)O)C(F)(F)F` (centres unmarked) [B-14] as the compound, how does the “Difference between acid dissociation constant a1 and acid dissociation constant a2” value read?
Its value is 3.63.

With `CC1(C)C2CCC1(CS(=O)(=O)NC(=O)C(F)(F)C(F)(F)C(F)(F)F)C(OC(=O)C(F)S(=O)(=O)O)C2` (centres unmarked) [B-8] as the compound, how does the “Difference between acid dissociation constant a1 and acid dissociation constant a2” value read?
Its value is 2.20.

With `O=C(CC(F)(F)F)NS(=O)(=O)C(F)(F)C(F)(F)C(F)(F)S(=O)(=O)NS(=O)(=O)C(F)(F)F` [B-22] as the compound, how does the “Difference between acid dissociation constant a1 and acid dissociation constant a2” value read?
The value was 10.35.

Which “Difference between acid dissociation constant a1 and acid dissociation constant a2” value does the source give for `O=C(COC(=O)C(F)(F)S(=O)(=O)O)NC(=O)C(F)(F)F` [B-4] here?
The value was 9.23.

With `O=C(OCCCS(=O)(=O)O)C(F)(F)S(=O)(=O)O` [B-6] as the compound, how does the “Difference between acid dissociation constant a1 and acid dissociation constant a2” value read?
The value was 4.82.

With `O=C(O)N1CCN(S(=O)(=O)C(F)(F)C(F)(F)C(F)(F)S(=O)(=O)NS(=O)(=O)C(F)(F)F)CC1` [B-13] as the compound, how does the “Difference between acid dissociation constant a1 and acid dissociation constant a2” value read?
The value was 15.11.

Which “Difference between acid dissociation constant a1 and acid dissociation constant a2” value does the source give for `CS(=O)(=O)NC(=O)C(F)(F)C(F)(F)C(F)(F)C(=O)OCC(F)S(=O)(=O)O` (centres unmarked) [B-5] here?
The value was 2.55.

For `O=C(O)C1CCCCC1C(=O)OCC(F)C(F)(F)S(=O)(=O)O` (centres unmarked) [B-17], which “Difference between acid dissociation constant a1 and acid dissociation constant a2” value is on record?
The value was 7.24.

With `O=S(=O)(O)NCCOC1CCCC(C(F)(F)S(=O)(=O)O)C1` (centres unmarked) [B-18] as the compound, how does the “Difference between acid dissociation constant a1 and acid dissociation constant a2” value read?
Its value is 3.2.
